Experimental data taken from patent US8058228B2, “Leptin peptide antagonists” (Boston Biomedical Research Institute, priority 2004, dated 2011).

System: OB-R
Assay: LIF-R expression by rabbit endometrial cells (immunocytochemistry, Western blot)
Assay type: cell-based
Details: leptin 3 nM; for effect on leptin up-regulation of LIF-R expression: rESC (immunocytochemistry) and rEEC (Western blot), LPA-2 30 and 120 nM; for LIF-R expression after leptin: rESC and rEEC
Description: Rabbit endometrial cells (5×10^5 cells/well) were cultured for 5-9 days in DMEM-MCDB105 (3:1) medium containing 10% fetal bovine serum (FBS), 5 μg/ml insulin, 1% amphopthericin B, 100 μg/ml streptomycin and 100 U/ml penicillin until confluent layers were obtained. The cells were washed twice with 100 mM phosphate saline buffer (PBS) −2% BSA (w/v), pH 7.2 and cultured for an additional 2 days in the same medium but without FBS (basal medium). This procedure was performed to reduce any effects of cytokines from FBS on the phosphorylation rate of Stat3 as well as the expression of other cytokines and their receptors. Cells were washed as described before and cultured in basal medium containing leptin (0-10 nM), OB-R antibody (1-20 μg/ml) and/or LPA-2 peptides (0-300 nM). Cultures were stopped at 24 h and the cells were used for immunocytochemistry, binding studies and western blot analysis. The conditioned media were collected, lyophilized and stored at −80° C. for ELISA determinations. Duplicate wells were run for each treatment and the experiments repeated at least three times with different cell preparations from different rabbits. Controls were the same cellular preparations cultured in basal medium containing non-specific goat IgGs and LPA-2Sc.
The rabbit endometrial cells were cultured as described above in duplicate on 8-well glass-bottom culture plates (Nalgene Nunc International, Naperville, Ill.) and fixed with methanol at −20° C. for 20 min for immunocytochemical studies. All the antibodies tested were diluted in PBS-2% BSA (w/v; buffer A).
Anti IL-1R tl (1 μg/ml), anti LIF-R (2 μg/ml), anti vimentin (1:50), anti cytokeratin (1:50) and anti p-Stat3 (1 μg/ml) antibodies were used to assess the expression of the respective antigens by rEEC and rESC cultures. After incubation with primary antibodies the cells were incubated with a streptavidin-biotin-alkaline phosphatase system according to the manufacturer directions (Vectastain, ABC-AP kit, Vector Laboratories, Burlingame, Calif.) and counter-stained with hematoxylin (Dako). Negative controls included cell preparations in which the primary antibodies were substituted by irrelevant species matched IgGs.
After culture in the presence of leptin, LPAs or antibodies, the endometrial cells were washed with ice-cold PBS and lysed by homogenization on ice with lysis buffer [[…] Tris, pH 7.4, containing […] NaCl, 2 mM EDTA, 10% glycerol, 50 mM β-glycerophosphate, […] NaF, 1% Nonidet P-40, 2 mM phenyl-methylsulfonyl fluoride, 2 mM sodium orthovanadate, 100 μM antipain, 0.1 mg/ml trypsin inhibitor and protease cocktail inhibitor 1:50 (Sigma)]. […] Protein concentrations were determined using the Bradford protein assay (BioRad Laboratories Inc., Hercules, Calif.). […]

Row | Substance | effect on leptin up-regulation of LIF-R expression | LIF-R expression after leptin | LIF-R expression after leptin (listed as Leptin)
1 | SRNVIQISNDLENLRDLLHVLAFSKS [LPA-2, 26 amino acid peptide, residues 70-95 of helix III of the human leptin molecule; leptin peptide antagonist] | totally inhibited the leptin effect on LIF-R expression |  | 
2 | leptin: human recombinant leptin (R&D Systems), OB-R ligand used as stimulus |  | up-regulates the expression of LIF-R | significantly increases the expression of LIF-R
3 | VAEVLNRSDLIQRISFSLDLNNSKLH [LPA-2Sc, scrambled version of LPA-2, negative control, reference compound] | did not prevent the leptin up-regulation of LIF-R |  | 
